Source: patent EP0382634A1, “Pyridazine derivatives, process for their preparation and pharmaceutical compositions containing them” (ELF SANOFI, priority 1989, dated 1990)

What was measured:
[1] = test system: rotations induites par la pirenzépine; test: Pirenzepine-induced rotations test (Worms et al., modified: oral dosing 4 h before pirenzepine); type: in vivo; details: 3 mg/kg body weight, 4 h before pirenzepine injection
Experimental: In vivo, les composés selon l'invention ont été essayés sur le test des rotations induites par la pirenzépine décrit par Worms P. et al. (Psychopharmacology, 1987, 93, 489-493) modifié en ce que l'administration des produits par voie orale qui a eu lieu 4 heures au lieu de 30 minutes avant l'injection de pirenzépine.

[2] = molecular target: T1, récepteurs de type M1 (Homo sapiens, UniProt P11229); test: Muscarinic M1 receptor ligand binding (technique of Watson et al.); details: in vitro; read-out: concentration inhibitrice 50 sur le ligand des récepteurs M1
T1 construct: une spécificité marquée pour les récepteurs centraux de type M1 vis-à-vis des récepteurs périphériques de type M2; from tissue; host or cells: central (brain) tissue
T1 sequence (P11229 1-460): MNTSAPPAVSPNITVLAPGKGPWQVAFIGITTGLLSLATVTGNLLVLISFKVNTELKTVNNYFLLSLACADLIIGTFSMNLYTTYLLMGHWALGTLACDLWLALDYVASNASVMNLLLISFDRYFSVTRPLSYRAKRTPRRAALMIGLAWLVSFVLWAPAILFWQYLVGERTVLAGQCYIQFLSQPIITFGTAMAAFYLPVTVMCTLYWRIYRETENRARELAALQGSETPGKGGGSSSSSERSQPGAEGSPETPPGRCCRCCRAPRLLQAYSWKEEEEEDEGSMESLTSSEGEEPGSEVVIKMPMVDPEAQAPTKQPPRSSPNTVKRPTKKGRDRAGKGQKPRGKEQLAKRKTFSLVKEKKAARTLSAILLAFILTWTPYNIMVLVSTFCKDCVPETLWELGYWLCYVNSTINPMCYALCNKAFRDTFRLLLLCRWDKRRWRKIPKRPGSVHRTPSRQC
Excerpt: In vitro, les composés (I) ont été essayés suivant la technique décrite par Watson J.D. et al. (Life Science, 1982, 31, 2019-2029) en ce qui concerne leur activité sur les récepteurs de type M1 et selon la technique décrite par Hammer R. et al. (Nature, 1980, 283, 90,92) et Hulme E.C. et al. (Molecular Pharmacology, 1978, 14, 737-750), en ce qui concerne leur activité sur les récepteurs de type M2.

IC50 [2] | Compound | inhibition des rotations induites par la pirenzépine [1]
 | Cc1cc(NCc2ccccn2)nnc1-c1ccccc1 [SR 96204 A] | 67%
30 nM | CCCc1cc(NCC2CCCN2CC)nnc1-c1ccccc1 (stereo not drawn) [SR 96181] | 71%
